The experiment in a line: Inhibition of HIV1 gp41-induced cell-cell fusion between viral envelope expressing human HL2/3 cells to CD4/CCR5 receptor expressing TZM-bl cells after 6 to 8 hrs by luciferase assay.

Square brackets hold non-standard residues; d marks the D form. Peptide text beside a SMILES is read from it. * marks the point of attachment. X1 = C=CCOC(=O)[C@]12CC[C@@H](C(=C)C)[C@@H]1[C@H]1CC[C@@H]3[C@@]4(C)CC[C@H](OC(=O)CCc5cn(CC(=O)*)nn5)C(C)(C)[C@@H]4CC[C@@]3(C)[C@]1(C)CC2; X9 = C=CCOC(=O)[C@]12CC[C@@H](C)[C@H](C)[C@H]1C1=CC[C@@H]3[C@@]4(C)CC[C@H](OC(=O)CCc5cn(CC(=O)*)nn5)C(C)(C)[C@@H]4CC[C@@]3(C)[C@]1(C)CC2; X3 = C=C(C)[C@@H]1CC[C@]2(C(=O)O)CC[C@]3(C)[C@H](CC[C@@H]4[C@@]5(C)CC[C@H](OC(=O)CCc6cn(CC(=O)*)nn6)C(C)(C)[C@@H]5CC[C@]43C)[C@@H]12; X5 = C=C(C)[C@@H]1CC[C@]2(C(=O)OCc3cn(CC(=O)*)nn3)CC[C@]3(C)[C@H](CC[C@@H]4[C@@]5(C)CC[C@H](OC(C)=O)C(C)(C)[C@@H]5CC[C@]43C)[C@@H]12; X11 = CCCc1cn(CC(=O)*)nn1; βAla = NCCC(=O)O

What is called EC50 is the concentration at which the effect is half-maximal. High values mean lower potency in that assay, low ones higher potency in that assay.

`C=C(C)[C@@H]1CC[C@]2(C(=O)OCc3cn(CC(=O)NCCCC[C@H](NC(=O)CCNC(=O)[C@H](CC(C)C)NC(=O)[C@H](CC(C)C)NC(=O)[C@H](CCC(=O)O)NC(=O)[C@H](CCC(N)=O)NC(=O)[C@H](CCC(=O)O)NC(=O)[C@H](CC(N)=O)NC(=O)[C@H](CCCCN)NC(=O)[C@H](CCC(=O)O)NC(=O)[C@H](CCC(N)=O)NC(=O)[C@H](CCC(N)=O)NC(=O)[C@H](CC(N)=O)NC(=O)[C@H](CCC(N)=O)NC(=O)[C@H](CO)NC(=O)[C@H](CCC(=O)O)NC(=O)[C@H](CCC(=O)O)NC(=O)[C@@H](NC(=O)[C@H](CC(C)C)NC(=O)[C@H](CO)NC(=O)[C@H](Cc4cnc[nH]4)NC(=O)[C@@H](NC(=O)[C@H](CC(C)C)NC(=O)[C@H](CO)NC(=O)[C@@H](NC(=O)[C@H](Cc4ccc(O)cc4)NC(=O)[C@H](CC(N)=O)NC(=O)[C@H](CC(N)=O)NC(C)=O)[C@@H](C)O)[C@@H](C)CC)[C@@H](C)CC)C(N)=O)nn3)CC[C@]3(C)[C@H](CC[C@@H]4[C@@]5(C)CC[C@H](OC(C)=O)C(C)(C)[C@@H]5CC[C@]43C)[C@@H]12` (Ac-NNYTSLIHSLIEESQNQQEKNEQELL[βAla]K(X5)-NH2) yielded an EC50 of 7.9 nM. The compound `C=CCOC(=O)[C@]12CC[C@@H](C)[C@H](C)[C@H]1C1=CC[C@@H]3[C@@]4(C)CC[C@H](OC(=O)CCc5cn(CC(=O)NCCCC[C@H](NC(=O)CCNC(=O)[C@H](CC(C)C)NC(=O)[C@H](CC(C)C)NC(=O)[C@H](CCC(=O)O)NC(=O)[C@H](CCC(N)=O)NC(=O)[C@H](CCC(=O)O)NC(=O)[C@H](CC(N)=O)NC(=O)[C@H](CCCCN)NC(=O)[C@H](CCC(=O)O)NC(=O)[C@H](CCC(N)=O)NC(=O)[C@H](CCC(N)=O)NC(=O)[C@H](CC(N)=O)NC(=O)[C@H](CCC(N)=O)NC(=O)[C@H](CO)NC(=O)[C@H](CCC(=O)O)NC(=O)[C@H](CCC(=O)O)NC(=O)[C@@H](NC(=O)[C@H](CC(C)C)NC(=O)[C@H](CO)NC(=O)[C@H](Cc6cnc[nH]6)NC(=O)[C@@H](NC(=O)[C@H](CC(C)C)NC(=O)[C@H](CO)NC(=O)[C@@H](NC(=O)[C@H](Cc6ccc(O)cc6)NC(=O)[C@H](CC(N)=O)NC(=O)[C@H](CC(N)=O)NC(C)=O)[C@@H](C)O)[C@@H](C)CC)[C@@H](C)CC)C(N)=O)nn5)C(C)(C)[C@@H]4CC[C@@]3(C)[C@]1(C)CC2` (Ac-NNYTSLIHSLIEESQNQQEKNEQELL[βAla]K(X9)-NH2) displayed a concentration for a half-maximal effect (EC50) of 3.4 nM.

`CCCc1cn(CC(=O)NCCCC[C@H](NC(=O)CCNC(=O)[C@H](CC(C)C)NC(=O)[C@H](CC(C)C)NC(=O)[C@H](CCC(=O)O)NC(=O)[C@H](CCC(N)=O)NC(=O)[C@H](CCC(=O)O)NC(=O)[C@H](CC(N)=O)NC(=O)[C@H](CCCCN)NC(=O)[C@H](CCC(=O)O)NC(=O)[C@H](CCC(N)=O)NC(=O)[C@H](CCC(N)=O)NC(=O)[C@H](CC(N)=O)NC(=O)[C@H](CCC(N)=O)NC(=O)[C@H](CO)NC(=O)[C@H](CCC(=O)O)NC(=O)[C@H](CCC(=O)O)NC(=O)[C@@H](NC(=O)[C@H](CC(C)C)NC(=O)[C@H](CO)NC(=O)[C@H](Cc2cnc[nH]2)NC(=O)[C@@H](NC(=O)[C@H](CC(C)C)NC(=O)[C@H](CO)NC(=O)[C@@H](NC(=O)[C@H](Cc2ccc(O)cc2)NC(=O)[C@H](CC(N)=O)NC(=O)[C@H](CC(N)=O)NC(C)=O)[C@@H](C)O)[C@@H](C)CC)[C@@H](C)CC)C(N)=O)nn1` (Ac-NNYTSLIHSLIEESQNQQEKNEQELL[βAla]K(X11)-NH2) displayed an EC50 of 2180 nM. In the case of `C=CCOC(=O)[C@]12CC[C@@H](C(=C)C)[C@@H]1[C@H]1CC[C@@H]3[C@@]4(C)CC[C@H](OC(=O)CCc5cn(CC(=O)NCCC(=O)N[C@@H](CC(N)=O)C(=O)N[C@@H](CC(N)=O)C(=O)N[C@@H](Cc6ccc(O)cc6)C(=O)N[C@H](C(=O)N[C@@H](CO)C(=O)N[C@@H](CC(C)C)C(=O)N[C@H](C(=O)N[C@@H](Cc6cnc[nH]6)C(=O)N[C@@H](CO)C(=O)N[C@@H](CC(C)C)C(=O)N[C@H](C(=O)N[C@@H](CCC(=O)O)C(=O)N[C@@H](CCC(=O)O)C(=O)N[C@@H](CO)C(=O)N[C@@H](CCC(N)=O)C(=O)N[C@@H](CC(N)=O)C(=O)N[C@@H](CCC(N)=O)C(=O)N[C@@H](CCC(N)=O)C(=O)N[C@@H](CCC(=O)O)C(=O)N[C@@H](CCCCN)C(=O)N[C@@H](CC(N)=O)C(=O)N[C@@H](CCC(=O)O)C(=O)N[C@@H](CCC(N)=O)C(=O)N[C@@H](CCC(=O)O)C(=O)N[C@@H](CC(C)C)C(=O)N[C@@H](CC(C)C)C(N)=O)[C@@H](C)CC)[C@@H](C)CC)[C@@H](C)O)nn5)C(C)(C)[C@@H]4CC[C@@]3(C)[C@]1(C)CC2` ({X1-βAla}-NNYTSLIHSLIEESQNQQEKNEQELL-NH2), the response was half-maximal at 197 nM (EC50).

On to `C=C(C)[C@@H]1CC[C@]2(C(=O)O)CC[C@]3(C)[C@H](CC[C@@H]4[C@@]5(C)CC[C@H](OC(=O)CCc6cn(CC(=O)NCCC(=O)N[C@@H](CC(N)=O)C(=O)N[C@@H](CC(N)=O)C(=O)N[C@@H](Cc7ccc(O)cc7)C(=O)N[C@H](C(=O)N[C@@H](CO)C(=O)N[C@@H](CC(C)C)C(=O)N[C@H](C(=O)N[C@@H](Cc7cnc[nH]7)C(=O)N[C@@H](CO)C(=O)N[C@@H](CC(C)C)C(=O)N[C@H](C(=O)N[C@@H](CCC(=O)O)C(=O)N[C@@H](CCC(=O)O)C(=O)N[C@@H](CO)C(=O)N[C@@H](CCC(N)=O)C(=O)N[C@@H](CC(N)=O)C(=O)N[C@@H](CCC(N)=O)C(=O)N[C@@H](CCC(N)=O)C(=O)N[C@@H](CCC(=O)O)C(=O)N[C@@H](CCCCN)C(=O)N[C@@H](CC(N)=O)C(=O)N[C@@H](CCC(=O)O)C(=O)N[C@@H](CCC(N)=O)C(=O)N[C@@H](CCC(=O)O)C(=O)N[C@@H](CC(C)C)C(=O)N[C@@H](CC(C)C)C(N)=O)[C@@H](C)CC)[C@@H](C)CC)[C@@H](C)O)nn6)C(C)(C)[C@@H]5CC[C@]43C)[C@@H]12` ({X3-βAla}-NNYTSLIHSLIEESQNQQEKNEQELL-NH2), for which the midpoint of the response, the EC50, lay at 15 nM.

Source of the values: BindingDB's records for doi:10.1021/jm500763m (Beijing Institute of Pharmacology & Toxicology, 2014).
